Data reported in patent US9108930B2, “N1- and N2-carbamoyl-1,2,3-triazole serine hydrolase inhibitors and methods” (The Scripps Research Institute, priority 2011, dated 2015).

Assays:
[1] = biological target: T1, DAGLB (Mus musculus, UniProt Q91WC9); assay: ABPP-MudPIT of peritoneal macrophages from treated mice; details: in vivo
T1 sequence (Q91WC9 1-669): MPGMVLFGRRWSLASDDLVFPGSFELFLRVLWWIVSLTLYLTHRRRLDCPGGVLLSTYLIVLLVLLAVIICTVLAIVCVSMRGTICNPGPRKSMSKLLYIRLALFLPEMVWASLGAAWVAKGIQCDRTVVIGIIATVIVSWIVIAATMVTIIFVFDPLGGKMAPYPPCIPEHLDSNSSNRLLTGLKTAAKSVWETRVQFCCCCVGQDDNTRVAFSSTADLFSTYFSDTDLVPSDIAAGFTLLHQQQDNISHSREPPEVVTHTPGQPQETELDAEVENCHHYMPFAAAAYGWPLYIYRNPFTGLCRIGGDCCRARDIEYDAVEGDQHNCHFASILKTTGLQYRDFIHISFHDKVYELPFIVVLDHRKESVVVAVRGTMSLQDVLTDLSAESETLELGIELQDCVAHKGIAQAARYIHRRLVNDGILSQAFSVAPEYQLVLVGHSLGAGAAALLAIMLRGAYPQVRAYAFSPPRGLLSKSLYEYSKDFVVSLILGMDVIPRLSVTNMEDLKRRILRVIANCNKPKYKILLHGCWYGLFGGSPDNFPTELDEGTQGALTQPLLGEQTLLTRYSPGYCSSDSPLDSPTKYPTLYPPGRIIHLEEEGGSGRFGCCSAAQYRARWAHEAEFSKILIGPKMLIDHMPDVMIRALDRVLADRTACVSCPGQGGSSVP

[2] = system: serine hydrolases in the peritoneal macrophage proteome; assay: ABPP-MudPIT of peritoneal macrophages from treated mice, off-targets; details: mouse, in vivo
[3] = system: peritoneal macrophages; assay: Metabolomics of thioglycolate-elicited peritoneal macrophages from treated mice; assay type: in vivo, mouse; details: 5 mg/kg, 4 hours, i.p.
Procedure: Mice were treated with KT109, KT172 or KT195 (5 mg/kg, 4 hours, i.p.) to evaluate whether blockade of DAGLB in peritoneal macrophages would result in metabolic effects similar to those observed in Neuro2A cells. Thioglycolate-elicited peritoneal macrophages were harvested, and the cells were subjected to metabolomics studies. […] All the metabolic effects observed in pharmacological studies were recapitulated using Daglb^−/− mice, providing genetic evidence that the changes were indeed DAGLB-mediated.
Metabolites were quantified by either selected reaction monitoring (SRM) of each metabolite using an Agilent G6410B Triple-Quad instrument or untargeted metabolomic analysis (substrate assays) using an Agilent 1100 series LC-MSD SL instrument. […] For analysis of diacylglycerols (DAGs) a Luna C5 column (50 mm×4.60 mm with 5 μm diameter particles) from Phenomenex was used. Mobile phase A was made of 95:5 v/v H2O:MeOH, and mobile phase B was composed of 60:35:5 v/v/v i-PrOH:MeOH:H2O. Ammonium hydroxide (0.1%) and formic acid (0.1%) was included to assist in ion formation in negative and positive ionization modes, respectively. For analysis of DAGs, 5 mM ammonium formate was also used in addition to 0.1% formic acid to assist in positive ionization and NH4+ adduct formation. For metabolite measurements, cells were resuspended in 1 mL of a 1% NaCl solution and added to 3 mL of a 2:1 v/v CHCl3:MeOH doped with 1 nmol of the following internal standards: d5-2-arachidonoylglycerol (2-AG), d8-arachidonic acid (AA), and d8-1-stearoyl-2-arachidonoylglycerol (SAG). The mixture was vortexed and then centrifuged (1,400×g, 3 min). The organic layer was removed, CHCl3 was added until the final volume was again 4 ml, and the extraction was repeated. The combined organic extracts were dried under a stream of N2 and resolubilized in 2:1 v/v CHCl3:MeOH (120 μl). 30 μL of resolubilized lipids were injected for positive mode (MAGs and DAGs) and negative mode (free fatty acids and eicosanoids) measurements.
The following parameters (MS) were used to measure the indicated metabolites by SRM (precursor ion, product ion, collision energy in V, polarity): C20:4 MAG or 2-AG (379, 287, 8, positive), d5-2-AG (384, 287, 5, positive), C18:0/C20:4 DAG or SAG (662, 341, 15, positive), d8-SAG (671, 671, 0, positive), C18:1/C20:4 DAG (660, 341, 15, positive), C16:0/C20:4 DAG (634, 341, 15, positive), C14:0/C20:4 DAG (606, 341, 15, positive), arachidonic acid or AA (303, 303, 0, negative), d8-AA (311, 267, 5, negative), PGE2 (351, 271, 10, negative), and PGD2 (351, 271, 10, negative). MS analysis was performed with an electrospray ionization source with the following parameters: drying gas temperature=350° C., drying gas flow rate=11 L/min, and the nebulizer pressure=35 psi. Prostaglandin SRM parameters were based on previously reported methods and transitions. Metabolites targeted by SRM were quantified by measuring the area under the peak in comparison with the internal standards. For metabolites where isotopic internal standards were not used, external standard curves with the internal standard versus metabolite standard were generated. In DAGL substrate assays, formation of the hydrolysis product, 2-AG was followed by measuring the area under the peak for 2-AG in comparison to the 1-monopentadecanoin standard ion.

[4] = biological target: T1, DAGLB; assay: In situ inhibition in Neuro2A cells, competitive ABPP with HT-01; assay type: cell-based; design: from tissue; host or cells: thioglycolate-elicited peritoneal macrophages of treated mice; details: 4 hours
Procedure: For gel-based competitive ABPP studies, proteomes from cells treated in situ with inhibitor for 4 h at 37° C. at the indicated concentrations (n=3) were labeled with HT-01 (1 μM) for 30 min at 37° C. After quenching, SDS-PAGE, and in-gel visualization, the percentage of enzyme activity remaining was determined by measuring the integrated optical intensity of the bands using IMAGER® software. For LC-MS substrate assays, the percentage of enzyme activity remaining was determined by comparing the specific activity (amount of 2-AG formed per min per mg of proteome) of inhibitor with DMSO-treated samples. The IC50 values were determined from a dose-response curve generated using GraphPad PRISM® software.

[5] = system: peritoneal macrophages of Pla2g4a-/- mice; assay: LPS-stimulated TNF-alpha release, macrophages from treated Pla2g4a-/- mice; assay type: in vivo, mouse; details: 5 mg/kg, 4 hours, i.p.
Procedure: Next, the cytokine profiles from a Pla2g4a^+/+ background were compared with the profiles from Pla2g4a^−/− mice treated with KT109 or KT195 (5 mg/kg, 4 hours, i.p.). […] However, no significant differences in LPS-stimulated TNF-alpha levels were observed from Pla2g4a^+/+ versus […].

SMILES | DAGLB inhibition by spectral counting [1] | off-target activities [2] | change in 2-AG [3] | change in SAG [3] | change in cellular AA, PGE2 and PGD2 [3] | IC50 [4] | increase of TNF-alpha levels upon LPS stimulation [5] | activity against DAGLB in Neuro2A cells [4] | effect on TNF-alpha levels upon LPS stimulation [5]
O=C(N1CCCCC1Cc1ccccc1)n1cc(-c2ccc(-c3ccccc3)cc2)nn1 (stereo not shown) [KT109] | confirmed inhibition of DAGLB | carboxylesterases (Ces3 and Ces2g) | Dramatic decreases in 2-AG | significant increases in SAG | significant decreases in cellular AA levels and a corresponding reduction in PGE2 and PGD2 | 0.014 µM | 2 fold | – | –
COc1ccc(-c2ccc(-c3cn(C(=O)N4CCCCC4c4ccccc4)nn3)cc2)cc1 (stereo not shown) [KT195] | no activity against DAGLB | also inhibited | no observable changes | – | None of these effects were observed | – | – | negligible activity against DAGLB | no observable effects
